Measurements as given in patent US20060030623A1, “Agent for the treatment or prevention of diabetes, obesity or arteriosclerosis” (priority 2004, published 2006).

Columns and labels:
[1] = Visceral fat-decreasing effect: fat weight by X ray CT in rats on high fat diet; type: in vivo; conditions: SD rats, 35% (w/w) high fat diet with 0.029% (w/w) Compound (1), 3 months
From the text: SD rats (Charles River Japan, Inc.) aged 8 weeks were used in the test. Animals acclimated to feeding with 35% (w/w) high fat diet for 1 week were grouped into 2 groups, i.e. a control group and a group treated with Compound (1), for the test. Animals in the control group received the 35% (w/w) high fat diet, and those in the Compound (1) group received the diet prepared by adding Compound (1) to 0.029% (w/w) of the 35% (w/w) high fat diet, for 3 months. Tap water was available ad libitum to the animals in the test.
Fat weight was determined 3 months later with an X ray CT scanner for laboratory animals (Aloka).

[2] = Antidiabetic effect: plasma parameters in KKAy mice after 14 days of Compound (1) in diet; type: in vivo, mouse (male KKAy, genetically diabetic, insulin-resistant); conditions: blood on day 15; for Free fatty acid / Insulin / Neutral fat: plasma
From the text: Male KKAy mice (Clea Japan, Inc.) aged 7 weeks which are genetically diabetic (insulin-resistant) were used in the test. Blood was previously collected from the orbital venous plexus of animals acclimated to feeding with normal powdered diet (CRF-1, Oriental Yeast, Co., Ltd.), and then the animals were grouped into 5 groups containing 6 animals each so that there might be no intergroup difference with respect to plasma parameters (neutral fat value, free fatty acid value, insulin value, blood sugar level). Compound (1) was added to the powdered diet so that the concentration in the diet might be 1, 3, 10, and 30 mg/kg/day. The animals were allowed to take the diet ad libitum for 14 days, and blood was collected again from the orbital venous plexus in the morning on day 15 for the measurement of the above-mentioned plasma parameters.

[3] = Anti-obesity effect: body weight and gain in rabbits on high fat diet; type: in vivo, Japanese white rabbits; conditions: high fat diet restricted to 100 g/day, after 12 weeks
From the text: Japanese white rabbits (Kitayama Labes., Co Ltd.) aged 9 weeks were used in the test. Blood was collected from the auricular artery of animals acclimated to feeding with high fat diet (RC-4 containing 0.3% cholesterol and 3% peanut oil, supplied by Oriental Yeast, Co., Ltd.), and then the animals were grouped into 4 groups containing 12 animals each so that there might be no intergroup difference with respect to body weight and plasma parameters (neutral fat value, total cholesterol value, HDL cholesterol value). Compound (1) was added to the high fat diet so that the intake of Compound (1) might be 3, 10, and 30 mg/kg/100 g diet/day. The animals were given the diet restricted to 100 g diet/day for 12 weeks, and body weight and its gain were determined after the 12 weeks.

Solubility in water = type: physicochemical; conditions: general statement, no test described
[4] = Anti-arteriosclerosis effect: lipid-stained area of aorta in rabbits on high fat diet; type: in vivo, Japanese white rabbits; conditions: rabbit aorta, lipid stain, high fat diet 100 g/day, 12 weeks
From the text: Japanese white rabbits (Kitayama Labes., Co Ltd.) aged 9 weeks were used in the test. Blood was collected from the auricular artery of animals acclimated to feeding with high fat diet (RC-4 containing 0.3% cholesterol and 3% peanut oil, Oriental Yeast, Co., Ltd.), and then the animals were grouped into 4 groups containing 12 animals each so that there might be no intergroup difference with respect to body weight and parameters in plasma (neutral fat value, total cholesterol value, HDL cholesterol value). Compound (1) was added to the high fat diet so that the intake of Compound (1) might be 3, 10, and 30 mg/kg/100 g diet/day. The animals were allowed to take the diet restricted to 100 g diet/day for 12 weeks, lipid of the aorta was stained, and the stained region was defined as the arteriosclerotic region. The percentage of area of the arteriosclerotic region was calculated according to the equation below.

CCOC(=O)C(COC(=O)Cc1ccc(NC(=O)c2ccccc2-c2ccc(C(F)(F)F)cc2)c(C(=O)N(C)C)c1)(C(=O)OCC)c1ccccc1 [Compound (1), 2-(2-{3-dimethylcarbamoyl-4-[(4′-trifluoromethyl-biphenyl-2-carbonyl)amino]phenyl}acetoxymethyl)-2-phenylmalonic acid diethyl ester]
Muscle weight [1]: 204.4 g
Subcutaneous fat weight [1]: 14.9 g
Visceral fat weight [1]: 28.8 g
Blood sugar ([2]; 1 mg/kg/day in diet): 413 ± 34.9 mg/dL
Blood sugar ([2]; 3 mg/kg/day in diet): 516 ± 14.9 mg/dL
Blood sugar ([2]; 10 mg/kg/day in diet): 405 ± 36.8 mg/dL
Blood sugar ([2]; 30 mg/kg/day in diet): 331 ± 39.6 mg/dL
Free fatty acid ([2]; 1 mg/kg/day in diet): 353 ± 15.9 µEq/l
Insulin ([2]; 1 mg/kg/day in diet): 117 ± 14.0 ng/mL
Neutral fat ([2]; 1 mg/kg/day in diet): 676 ± 57.2 mg/dL
Free fatty acid ([2]; 3 mg/kg/day in diet): 293 ± 11.7 µEq/l
Insulin ([2]; 3 mg/kg/day in diet): 103 ± 10.5 ng/mL
Neutral fat ([2]; 3 mg/kg/day in diet): 716 ± 79.9 mg/dL
Free fatty acid ([2]; 10 mg/kg/day in diet): 235 ± 24.9 µEq/l
Insulin ([2]; 10 mg/kg/day in diet): 102 ± 11.3 ng/mL
Neutral fat ([2]; 10 mg/kg/day in diet): 545 ± 53.1 mg/dL
Free fatty acid ([2]; 30 mg/kg/day in diet): 171 ± 17.4 µEq/l
Insulin ([2]; 30 mg/kg/day in diet): 67 ± 10.4 ng/mL
Neutral fat ([2]; 30 mg/kg/day in diet): 298 ± 21.0 mg/dL
Body weight ([3]; 3 mg/kg/day): 3122.1 g
Body weight gain ([3]; 3 mg/kg/day): 1176.0 g
Body weight ([3]; 10 mg/kg/day): 2997.1 g
Body weight gain ([3]; 10 mg/kg/day): 1065.9 g
Body weight ([3]; 30 mg/kg/day): 2969.0 g
Body weight gain ([3]; 30 mg/kg/day): 1025.4 g
Solubility in water (Solubility in water): slightly soluble or insoluble in water
Percentage of area of arteriosclerotic region ([4]; 3 mg/kg/day): 28.4%
Percentage of area of arteriosclerotic region ([4]; 10 mg/kg/day): 7.7%
Percentage of area of arteriosclerotic region ([4]; 30 mg/kg/day): 0.15%
